Results reported in PubChem BioAssay (NCI).
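Each compound was tested at five concentrations against cells in 96-well plates for 48 hours. GI50 marks 50% less growth. TGI marks complete inhibition of growth.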

What was measured:
Assay in all cases: inhibition of tumour cell growth, NCI panel, 48 h
SK-OV-3 ovarian = tested on: SK-OV-3 ovarian
MALME-3M melanoma = tested on: MALME-3M melanoma
BT-549 breast = tested on: BT-549 breast
SF-539 CNS = tested on: SF-539 CNS
HS 578T breast = tested on: HS 578T breast
SK-MEL-2 melanoma = tested on: SK-MEL-2 melanoma
OVCAR-3 ovarian = tested on: OVCAR-3 ovarian
UACC-257 melanoma = tested on: UACC-257 melanoma
A498 renal = tested on: A498 renal
NCI-H226 lung = tested on: NCI-H226 lung

Compound	GI50 (SK-OV-3 ovarian) [nM]	TGI (SK-OV-3 ovarian) [µM]	TGI (MALME-3M melanoma) [µM]	GI50 (BT-549 breast) [µM]	TGI (BT-549 breast) [µM]	GI50 (SF-539 CNS) [nM]	GI50 (HS 578T breast) [µM]	TGI (HS 578T breast) [µM]	GI50 (SK-MEL-2 melanoma) [µM]	TGI (SK-MEL-2 melanoma) [µM]	GI50 (OVCAR-3 ovarian) [nM]	TGI (OVCAR-3 ovarian) [µM]	GI50 (UACC-257 melanoma) [µM]	TGI (UACC-257 melanoma) [µM]	GI50 (A498 renal) [nM]	TGI (A498 renal) [µM]	GI50 (NCI-H226 lung) [nM]	TGI (NCI-H226 lung) [µM]	GI50 (MALME-3M melanoma) [nM]	TGI (SF-539 CNS) [µM]
COc1cccc(C2C3=C(COC3=O)N(CCO)c3cc4c(cc32)OCO4)c1 (stereo unspecified)	289	> 13.8	> 50	0.45	> 45.1	360	0.251	45.2	0.142	0.43	121	0.286	0.124	> 50	263	5.1	23200	> 50	–	–
COc1cc(NCCN=C(N)NC(N)=NC(C)C)c2ncccc2c1	48800	> 100	6.71	9.66	29.4	4060	13	> 75.1	1.99	7.36	1060	23.1	11	32.5	> 58100	> 100	39700	> 100	1600	20
Cc1ccc(NCCN(C)C)c2c(=O)c3ccccc3sc12	1730	3.92	3.28	3.89	15.5	1590	1.59	3.76	2	4.31	1860	3.73	1.88	3.83	1140	2.52	1830	3.96	1660	2.97
COc1ccc(C2C=C(c3ccc(Cl)cc3)N=C3SC=C(C)N32)c(Br)c1 (stereo unspecified)	3570	12.6	22.8	3.22	12.4	2150	2.19	7.5	4.79	18.1	2360	5.48	4.42	18.8	4180	16.2	11400	> 100	8310	5.37
COc1cccc2c1C(=O)OC2c1cccc2ccccc12 (stereo unspecified)	–	> 100	> 100	–	> 100	–	–	> 100	–	> 100	–	> 100	–	> 100	–	> 100	–	> 100	–	> 100
Cc1cc(Nc2cc(N3CCN(C)CC3)nc(Sc3ccc(NC(=O)C4CC4)cc3)n2)n[nH]1	> 10000	> 10	> 10	5.89	> 10	1920	3.46	> 10	5.51	> 10	3460	> 10	3.52	> 10	1740	8.38	737	> 10	4850	> 10
Nc1nc(N)c2cc(Sc3cccc(C(F)(F)F)c3)ccc2n1	–	21	2.91	–	20.5	–	–	10.2	–	5.25	–	13.6	1.27	3.36	2170	14.4	2340	8.15	–	13.9
CCOC(=O)c1cnn2c3ccccc3n(S(=O)(=O)c3ccc(OC)cc3)c12	786	> 100	> 100	0.34	13.1	252	0.459	> 100	4.03	> 100	181	0.493	17.1	> 100	209	0.764	2600	> 100	598	0.868
O=C1c2ccccc2C(=O)c2sc(Nc3ccccc3Cl)nc21	–	33.7	28	–	29.5	–	–	80.4	–	34.5	–	25.8	–	21.4	–	32.2	–	28.6	–	31.4
COc1cccc(/C(C)=N/NC(=O)CSc2nc3ccccc3c(=O)n2CCc2ccc(S(N)(=O)=O)cc2)c1	2260	4.88	4.62	2.27	40.9	1880	3.54	15.9	3.42	16.3	2320	4.8	10.9	36.7	8020	24.8	3290	13	1980	3.98
COc1ccc(C(CC(=O)c2ccccc2)C(C(=O)c2ccccc2)C(c2ccc(OC)cc2)C2C(=O)NC(=S)NC2=O)cc1 (stereo unspecified)	> 100000	> 100	58.4	12.8	49.8	10100	10.5	47.9	13.8	49	4960	24.8	13.8	52.7	3190	23.2	38400	> 100	19800	36.1
CN1CCN(Cc2ccc3c(NNC(=O)c4ccccc4)nc4cc(F)ccc4n23)CC1	371	> 100	12.7	0.87	57.9	491	5.73	> 100	2.41	> 70.6	337	40.1	0.848	12.5	658	8.81	442	9.71	584	8.22
